Reference: patent US20050064462A1, “Methods, compositions, and kits for predicting the effect of compounds on hot flash symptoms” (priority 2003, published 2005)
Entries after “also recorded” stand apart in the source; their conditions may differ.

Tests used:
[1] = system: HMG-box containing protein 1; assay: Differential gene expression in a cell following contact with reference compounds: HBP1; assay type: cell-based; details: accession U09551; cell expressing estrogen receptor or estrogen related receptor, after contact with compound
Description: (§1) The expression of any gene known by one of skill in the art to be associated with hot flash symptoms, without limitation, can be assessed in the methods of the invention. The present invention provides numerous such genes as described in detail, below. Further, additional genes that are associated with hot flash symptoms can readily be identified by one of skill in the art according to the disclosure of the present invention. For example, a cell that expresses the estrogen receptor or estrogen related receptor can be contacted with a reference compound known to affect hot flash symptoms. The overall expression of genes in the cell following contact with the reference compound can be compared to the overall expression of genes in a similar cell that has not been contacted with the reference compound.
(§2) The expression of such genes to identify genes that are differentially expressed following contact with a compound with a known effect on hot flash symptoms can be monitored by any convenient method known by one of skill in the art. Most advantageously, the expression of many genes, e.g., thousands of genes, is monitored at once using a high throughput method for assessing expression of genes in the presence and absence of compounds known to affect hot flash symptoms. […]

Annexin 1 = assay: Differential gene expression in a cell following contact with reference compounds: Annexin 1; assay type: cell-based; details: accession AI171962; cell expressing estrogen receptor or estrogen related receptor, after contact with compound
Description: as §1, §2

[2] = system: FE65 adaptor protein interacting with beta-amyloid precursor protein intracellular domain; assay: Differential gene expression in a cell following contact with reference compounds: FE65; assay type: cell-based; details: accession X60469; cell expressing estrogen receptor or estrogen related receptor, after contact with compound
Description: as §1, §2

N27 = assay: Differential gene expression in a cell following contact with reference compounds: N27; assay type: cell-based; details: accession AI014169; cell expressing estrogen receptor or estrogen related receptor, after contact with compound
Description: as §1, §2

hot flash symptoms = details: cited from earlier work
D-binding protein = assay: Differential gene expression in a cell following contact with reference compounds: D-binding protein; assay type: cell-based; details: accession J03179; cell expressing estrogen receptor or estrogen related receptor, after contact with compound
Description: as §1, §2

Protein Kinase C type I = assay: Differential gene expression in a cell following contact with reference compounds: Protein Kinase C type I; assay type: cell-based; details: accession M13707; cell expressing estrogen receptor or estrogen related receptor, after contact with compound
Description: as §1, §2

[3] = system: Protein Tyrosine Phosphatase BAD2; assay: Differential gene expression in a cell following contact with reference compounds: BAD2; assay type: cell-based; details: accession U02553; cell expressing estrogen receptor or estrogen related receptor, after contact with compound
Description: as §1, §2

Type II Hexokinase = assay: Differential gene expression in a cell following contact with reference compounds: Type II Hexokinase; assay type: cell-based; details: accession D26393; cell expressing estrogen receptor or estrogen related receptor, after contact with compound
Description: as §1, §2

Activin Beta E = assay: Differential gene expression in a cell following contact with reference compounds: Activin Beta E; assay type: cell-based; details: accession AF089825; cell expressing estrogen receptor or estrogen related receptor, after contact with compound
Description: as §1, §2

Interleukin-18 = assay: Differential gene expression in a cell following contact with reference compounds: Interleukin-18; assay type: cell-based; details: accession AJ222813; cell expressing estrogen receptor or estrogen related receptor, after contact with compound
Description: as §1, §2

EST196325 = assay: Differential gene expression in a cell following contact with reference compounds: EST196325; assay type: cell-based; details: accession AA892522; cell expressing estrogen receptor or estrogen related receptor, after contact with compound
Description: as §1, §2

Calpain = assay: Differential gene expression in a cell following contact with reference compounds: Calpain; assay type: cell-based; details: accession D14478; cell expressing estrogen receptor or estrogen related receptor, after contact with compound
Description: as §1, §2

EST208064 = assay: Differential gene expression in a cell following contact with reference compounds: EST208064; assay type: cell-based; details: accession AI013389; cell expressing estrogen receptor or estrogen related receptor, after contact with compound
Description: as §1, §2

[4] = system: Multi Drug Resistance Gene; assay: Differential gene expression in a cell following contact with reference compounds: Multi Drug Resistance Gene; assay type: cell-based; details: accession M81855; cell expressing estrogen receptor or estrogen related receptor, after contact with compound
Description: as §1, §2

[5] = system: Argininosuccinate Synthetase; assay: Differential gene expression in a cell following contact with reference compounds: Argininosuccinate Synthetase; assay type: cell-based; details: accession X12459; cell expressing estrogen receptor or estrogen related receptor, after contact with compound
Description: as §1, §2

ARL gene 4 = assay: Differential gene expression in a cell following contact with reference compounds: ARL gene 4; assay type: cell-based; details: accession X77235; cell expressing estrogen receptor or estrogen related receptor, after contact with compound
Description: as §1, §2

Prolactin = assay: Differential gene expression in a cell following contact with reference compounds: Prolactin; assay type: cell-based; details: accession AI175539; cell expressing estrogen receptor or estrogen related receptor, after contact with compound
Description: as §1, §2

Parvalbumin = assay: Differential gene expression in a cell following contact with reference compounds: Parvalbumin; assay type: cell-based; details: accession AF022935; cell expressing estrogen receptor or estrogen related receptor, after contact with compound
Description: as §1, §2

[6] = system: Interleukin-1 β-converting enzyme-related protease CPP32; assay: Differential gene expression in a cell following contact with reference compounds: CPP32; assay type: cell-based; details: accession U84410; cell expressing estrogen receptor or estrogen related receptor, after contact with compound
Description: as §1, §2

2-alpha-1 globin = assay: Differential gene expression in a cell following contact with reference compounds: 2-alpha-1 globin; assay type: cell-based; details: accession X56325; cell expressing estrogen receptor or estrogen related receptor, after contact with compound
Description: as §1, §2

[7] = system: Ribonucleoside Reductase Nuclear Receptor; assay: Differential gene expression in a cell following contact with reference compounds: RNR-1; assay type: cell-based; details: accession L08595; cell expressing estrogen receptor or estrogen related receptor, after contact with compound
Description: as §1, §2

## O=C(c1ccc(OCCN2CCCCC2)cc1)c1c(-c2ccc(O)cc2)sc2cc(O)ccc12 [Raloxifene, raloxifene]
[1]
  Effect on Expression of HMG-box containing protein 1 (HBP1): Upregulated
Annexin 1
  Effect on Expression of Annexin 1 (EST 21795): Upregulated
[2]
  Effect on Expression of FE65 adaptor protein interacting with beta-amyloid precursor protein intracellular domain (FE65): Upregulated
N27
  Effect on Expression of N27 (EST 207724): Upregulated
Hot flash symptoms; administered in the treatment of osteoporosis
  subjects experiencing hot flash symptoms of sufficient severity to discontinue therapy: approximately 11%
D-binding protein
  Effect on Expression of D-binding protein: Upregulated
Protein Kinase C type I
  Effect on Expression of Protein Kinase C type I (PKC type I): Upregulated

## 4-hydroxy tamoxifen
[1]
  Effect on Expression of HMG-box containing protein 1 (HBP1): Upregulated
Annexin 1
  Effect on Expression of Annexin 1 (EST 21795): Upregulated
N27
  Effect on Expression of N27 (EST 207724): Upregulated
Hot flash symptoms; when administered to a subject
  known effect on the incidence of hot flash symptoms: increasing effect on hot flash symptoms; also recorded: increase the incidence of hot flash symptoms
D-binding protein
  Effect on Expression of D-binding protein: Upregulated
Protein Kinase C type I
  Effect on Expression of Protein Kinase C type I (PKC type I): Upregulated
[3]
  Effect on Expression of Protein Tyrosine Phosphatase BAD2: downregulation
Type II Hexokinase
  Effect on Expression of Type II Hexokinase (HKII): downregulation

## C#C[C@]1(O)CC[C@H]2[C@@H]3[C@H](C)CC4=C(CCC(=O)C4)[C@H]3CC[C@@]21C [Tibolone, tibolone]
Activin Beta E
  Effect on Expression of Activin Beta E: Upregulated
Interleukin-18
  Effect on Expression of Interleukin-18 (IL-18): Upregulated
EST196325
  Effect on Expression of EST196325: Upregulated
Calpain
  Effect on Expression of Calpain: Upregulated
EST208064
  Effect on Expression of EST208064: Upregulated
[4]
  Effect on Expression of Multi Drug Resistance Gene (MDR): Upregulated
[5]
  Effect on Expression of Argininosuccinate Synthetase: Upregulated
ARL gene 4
  Effect on Expression of ARL gene 4: Upregulated
Prolactin
  Effect on Expression of Prolactin: Upregulated
Parvalbumin
  Effect on Expression of Parvalbumin: Upregulated
[6]
  Effect on Expression of Interleukin-1 β-converting enzyme-related protease CPP32: Upregulated
2-alpha-1 globin
  Effect on Expression of 2-alpha-1 globin: Upregulated
[3]
  Effect on Expression of Protein Tyrosine Phosphatase BAD2: Upregulated
[7]
  Effect on Expression of Ribonucleoside Reductase Nuclear Receptor (RNR-1): Upregulated
Type II Hexokinase
  Effect on Expression of Type II Hexokinase (HKII): Upregulated
